# Assay results from patent publication US7196192B2, “28-epirapalogs” (Ariad Gene Therapeutics, Inc., priority 1999, dated 2007).
# “And” between values parts separate entries of the source, which are not always exact repeats. Identical values can stand only once. Like-named read-outs stand apart in the source and are kept apart here.
# Tests used:
# [1] = biological target: T1, transcriptional switch components containing FKBP and 2098L mutant FRB domains (Homo sapiens, UniProt P42345+P62942); assay: transcription assay in engineered HD1080 cells expressing SEAP (txn 2098L); format: cell-based
# T1 construct: transcriptional switchcomponents containing FKBP and 2098L mutant FRB domains, respectively; fused on or other part: The two switch components are separate chimeric proteins; Neither is given for this cell line
# T1 sequence (P62942 2-108 limits assumed, stated change not applied, other chains not shown): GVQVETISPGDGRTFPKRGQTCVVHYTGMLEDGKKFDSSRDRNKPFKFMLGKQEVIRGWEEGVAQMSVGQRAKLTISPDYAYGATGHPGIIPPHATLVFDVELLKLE
# Text: The ability of the rapalogs to multimerize chimeric proteins may be measured in cell-based assays by measuring the occurrence of an event triggered by such multimerization. For instance, one may use cells containing and capable of expressing DNA encoding a first chimeric protein comprising one or more FKBP-domains and one or more effector domains as well as DNA encoding a second chimeric protein containing an FRB domain and one or more effector domains capable, upon multimerization, of actuating a biological response. We prefer to use cells which further contain a reporter gene under the transcriptional control of a regulatory element (i.e., promoter) which is responsive to the multimerization of the chimeric proteins. The design and preparation of illustrative components and their use in so engineered cells is described in WO99/36553 and WO96/41865 and the other international patent applications referred to in this and the foregoing section. (See also W099/10510 for additional guidance on the design, assembly and delivery of nucleic acids to render cells and animals responsive to rapalogs of interest and for additional guidance on applications of such systems.) The cells are grown or maintained in culture. A rapalog is added to the culture medium and after a suitable incubation period (to permit gene expression and secretion, e.g. several hours or overnight) the presence of the reporter gene product is measured. Positive results, i.e., multimerization, correlates with transcription of the reporter gene as observed by the appearance of the reporter gene product. The reporter gene product may be a conveniently detectable protein (e.g. by ELISA) or may catalyze the production of a conveniently detectable product (e.g. colored). Materials and methods for producing appropriate cell lines for conducting such assays are disclosed in the international patent applications cited above in this section.
# 2. EC50 values of the various compounds was measured in a transcription assay using genetically engineered HD1080 cells which constitutively express transcriptional switch components containing FKBP and 2098L mutant FRB domains, respectively and which regulatably express secreted alkaline phosphatase (SEAP) in the presence of a compound which multimerizes the switch components. The assay is a literature assay. See WO 99/36553, e.g. Example 12, pages 120–121 (& FIG. 2D) […]
# [2] = biological target: FKBP (Homo sapiens, UniProt P62942); assay: FKBP competitive binding assay based on fluorescence polarization (FP); conditions: for IC50: competitive FP binding, methods of Example 2.5
# Sequence of FKBP (P62942 whole entry): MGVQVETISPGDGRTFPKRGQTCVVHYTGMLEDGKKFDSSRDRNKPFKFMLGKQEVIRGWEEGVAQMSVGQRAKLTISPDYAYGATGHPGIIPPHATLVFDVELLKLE
# Protocol: A Competitive Binding FP Assay is described in detail in WO99/36553 and WO96/41865. That assay permits the in vitro measurement of an IC50 value for a given compound which reflects its ability to bind to an FKBP-protein in competition with a labeled FKBP ligand, such as, for example, FK506.
# (§1) A diverse group of C7-modified 28-epirapalogs were prepared as described in Example 4.
# [3] = system: murine splenocyte; assay: murine splenocyte assay for immunosuppressive activity; format: cell-based; conditions: for immunosuppressive activity compared with rapamycin: splenocyte proliferation assay, versus rapamycin
# Protocol: 3. Conventional murine splenocyte assay for immunosuppressive activity.
# as §1
# [4] = cellular transcription assay, methods of Example 2.5; read-out: TXN 2098L EC50
# [5] = mouse splenocyte assay, methods of Example 2.5, read-out: Splenocyte IC50
# [6] = read-out: TXN 2098L EC50; cellular transcription assay, methods of Example 2.5
# [7] = Mus musculus, Splenocyte, mouse splenocyte assay, methods of Example 2.5, read-out: Splenocyte IC50
# [8] = Mus musculus, Splenocyte, murine splenocyte assay, immunosuppressive activity, read-out: Splenocyte IC50
Compound,"EC50 [1, 4]",IC50 ([2]; read-out: FKBP IC50),"IC50 [3, 5]",other results
28-epi-7R-(3′-methyl)-but-4′-enyloxy,35 nM,13 nM,3160 nM,–
28-epi-7S-(3′-methyl)-but-4′-enyloxy,16 nM,27 nM,718 nM,–
28-epi-7S-dimethylthiophene,30 nM,78 nM,1240 to 1540 nM,–
"COc1ccccc1COC1CC2CCC(C)C(O)(O2)C(=O)C(=O)N2CCCCC2C(=O)OC(C(C)CC2CCC(O)C(OC)C2)CC(=O)C(C)C=C(C)C(O)C(OC)C(=O)C(C)CC(C)C=CC=CC=C1C (single isomer, unassigned) [28-epi-7R-2′-methoxybenzyloxy]",24 nM,4.6 nM,653 nM,–
"COC1CC(CC(C)C2CC(=O)C(C)C=C(C)C(O)C(OC)C(=O)C(C)CC(C)C=CC=CC=C(C)C(N(C)C(=O)OCC(C)C)CC3CCC(C)C(O)(O3)C(=O)C(=O)N3CCCCC3C(=O)O2)CCC1O (single isomer, unassigned) [28-epi-7R-N-Me-isobutylcarbamate]",15 nM,109 nM,587 nM,–
"CCCS(=O)(=O)N(C)C1CC2CCC(C)C(O)(O2)C(=O)C(=O)N2CCCCC2C(=O)OC(C(C)CC2CCC(O)C(OC)C2)CC(=O)C(C)C=C(C)C(O)C(OC)C(=O)C(C)CC(C)C=CC=CC=C1C (single isomer, unassigned) [28-epi-7R-N-Me-propanesulfonamide]",9 nM,148 nM,1370 nM,–
"CCOC(=O)N(C)C1CC2CCC(C)C(O)(O2)C(=O)C(=O)N2CCCCC2C(=O)OC(C(C)CC2CCC(O)C(OC)C2)CC(=O)C(C)C=C(C)C(O)C(OC)C(=O)C(C)CC(C)C=CC=CC=C1C (single isomer, unassigned) [28-epi-7R-N-methyl-ethylcarbamate]",9 nM,120 nM,255 nM,–
"COC1CC(CC(C)C2CC(=O)C(C)C=C(C)C(O)C(OC)C(=O)C(C)CC(C)C=CC=CC=C(C)C(OCc3ccccc3)CC3CCC(C)C(O)(O3)C(=O)C(=O)N3CCCCC3C(=O)O2)CCC1O (single isomer, unassigned) [28-epi-7R-benzyloxy]",14 nM,9.1 nM,313 nM,–
"COc1ccccc1COC1CC2CCC(C)C(O)(O2)C(=O)C(=O)N2CCCCC2C(=O)OC(C(C)CC2CCC(O)C(OC)C2)CC(=O)C(C)C=C(C)C(O)C(OC)C(=O)C(C)CC(C)C=CC=CC=C1C (single isomer, unassigned) [28-epi-7S-2′-methoxybenzyloxy]",15 nM,33 nM,25 nM,–
"COC1CC(CC(C)C2CC(=O)C(C)C=C(C)C(O)C(OC)C(=O)C(C)CC(C)C=CC=CC=C(C)C(N(C)C(=O)OCC(C)C)CC3CCC(C)C(O)(O3)C(=O)C(=O)N3CCCCC3C(=O)O2)CCC1O (single isomer, unassigned) [28-epi-7S-N-Me-isobutylcarbamate]",40 nM,19 nM,1380 nM,–
CO[C@@H]1C[C@H](C[C@@H](C)[C@@H]2CC(=O)[C@H](C)/C=C(\C)[C@H](O)[C@@H](OC)C(=O)[C@H](C)C[C@H](C)/C=C/C=C/C=C(\C)[C@H](Oc3ccccc3C)C[C@@H]3CC[C@@H](C)[C@@](O)(O3)C(=O)C(=O)N3CCCC[C@H]3C(=O)O2)CC[C@H]1O [28-epi-7R-2′-methylphenyloxy],–,–,–,"EC50 [1, 6]: 8 nM; TXN 2098L peak relative to rapamycin peak ([1]; superscript mark on EC50 cell): (+) (peak was >125% rapamycin peak); IC50 ([2]; FKBP IC50 (nM)): 8.1 nM"
CO[C@@H]1C[C@H](C[C@@H](C)[C@@H]2CC(=O)[C@H](C)/C=C(\C)[C@H](O)[C@@H](OC)C(=O)[C@H](C)C[C@H](C)/C=C/C=C/C=C(\C)[C@H](N(C)S(=O)(=O)N(C)C)C[C@@H]3CC[C@@H](C)[C@@](O)(O3)C(=O)C(=O)N3CCCC[C@H]3C(=O)O2)CC[C@H]1O [28-epi-7R-N-Me-dimethylsulfamide],8 nM,–,653 nM,–
CO[C@@H]1C[C@H](C[C@@H](C)[C@@H]2CC(=O)[C@H](C)/C=C(\C)[C@H](O)[C@@H](OC)C(=O)[C@H](C)C[C@H](C)/C=C/C=C/C=C(\C)[C@H](N(C)S(=O)(=O)N(C)c3ccccc3)C[C@@H]3CC[C@@H](C)[C@@](O)(O3)C(=O)C(=O)N3CCCC[C@H]3C(=O)O2)CC[C@H]1O [28-epi-7R-N-Me-methylphenylsulfamide],8 nM,74 nM,–,–
CCOC1CC2CCC(C)C(O)(O2)C(=O)C(=O)N2CCCCC2C(=O)OC(C(C)CC2CCC(O)C(OC)C2)CC(=O)C(C)C=C(C)C(O)C(OC)C(=O)C(C)CC(C)C=CC=CC=C1C (stereo not drawn) [28-epi-7R-ethoxy],33 nM,–,–,–
CO[C@@H]1C[C@H](C[C@@H](C)[C@@H]2CC(=O)[C@H](C)/C=C(\C)[C@H](O)[C@@H](OC)C(=O)[C@H](C)C[C@H](C)/C=C/C=C/C=C(\C)[C@@H](Oc3ccccc3C)C[C@@H]3CC[C@@H](C)[C@@](O)(O3)C(=O)C(=O)N3CCCC[C@H]3C(=O)O2)CC[C@H]1O [28-epi-7S-2′-methylphenyloxy],–,–,–,"EC50 [1, 6]: 14 nM; IC50 ([2]; FKBP IC50 (nM)): 17 nM"
CO[C@@H]1C[C@H](C[C@@H](C)[C@@H]2CC(=O)[C@H](C)/C=C(\C)[C@H](O)[C@@H](OC)C(=O)[C@H](C)C[C@H](C)/C=C/C=C/C=C(\C)[C@@H](N(C)S(=O)(=O)N(C)c3ccccc3)C[C@@H]3CC[C@@H](C)[C@@](O)(O3)C(=O)C(=O)N3CCCC[C@H]3C(=O)O2)CC[C@H]1O [28-epi-7S-N-Me-methylphenylsulfamide],26 nM,–,–,–
COC1CC(CC(C)C2CC(=O)C(C)C=C(C)C(O)C(OC)C(=O)C(C)CC(C)C=CC=CC=C(C)C(OCCC3CCCCC3)CC3CCC(C)C(O)(O3)C(=O)C(=O)N3CCCCC3C(=O)O2)CCC1O (stereo not drawn) [28-epi-7S-cyclohexylethyloxy],76 nM,–,–,–
CCOC1CC2CCC(C)C(O)(O2)C(=O)C(=O)N2CCCCC2C(=O)OC(C(C)CC2CCC(O)C(OC)C2)CC(=O)C(C)C=C(C)C(O)C(OC)C(=O)C(C)CC(C)C=CC=CC=C1C (stereo not drawn) [28-epi-7S-ethoxy],15 nM,–,–,"IC50 ([3]; Mus musculus, Splenocyte, read-out: Splenocyte IC50 (nM)): 801 nM"
CO[C@@H]1C[C@H](C[C@@H](C)[C@@H]2CC(=O)[C@H](C)/C=C(\C)[C@H](O)[C@@H](OC)C(=O)[C@H](C)C[C@H](C)/C=C/C=C/C=C(\C)[C@@H](OC(C)C)C[C@@H]3CC[C@@H](C)[C@@](O)(O3)C(=O)C(=O)N3CCCC[C@H]3C(=O)O2)CC[C@H]1O [28-epi-7S-isopropyloxy],29 nM,49 nM,–,–
COC1CC(CC(C)C2CC(=O)C(C)C=C(C)C(O)C(OC)C(=O)C(C)CC(C)C=CC=CC=C(C)C(SC(C)C)CC3CCC(C)C(O)(O3)C(=O)C(=O)N3CCCCC3C(=O)O2)CCC1O (stereo not drawn) [28-epi-7S-isopropylthioether],–,15 nM and 21 nM,–,TXN 2098L peak relative to rapamycin peak ([1]; superscript mark on EC50 cell): (+) (peak was >125% rapamycin peak)
CO[C@H]1C[C@@H]2CC[C@@H](C)[C@@](O)(O2)C(=O)C(=O)N2CCCCC2C(=O)O[C@H]([C@H](C)C[C@@H]2CC[C@@H](O)[C@H](OC)C2)CC(=O)[C@H](C)/C=C(\C)[C@H](O)[C@@H](OC)C(=O)[C@H](C)C[C@H](C)/C=C/C=C/C=C/1C (stereo partly shown) [28-epirapamycin],–,–,–,"affinity towards FKBP, times weaker than that of rapamycin ([2]; fluorescence polarization competition assay, versus rapamycin): about 5 times; IC50 [3, 7]: 0.9 to 3.5 nM; IC50 [3, 8]: 0.9 to 3.5 nM; immunosuppressive activity compared with rapamycin [3]: less potent immunosuppressive activity; immunosuppressive activity compared with rapamycin ([3]; listed as 2): more than an order of magnitude reduced"
"CO[C@H]1C[C@@H]2CC[C@@H](C)[C@@](O)(O2)C(=O)C(=O)N2CCCCC2C(=O)O[C@H]([C@H](C)C[C@@H]2CC[C@@H](O)[C@H](OC)C2)CC(=O)[C@H](C)/C=C(\C)[C@@H](O)[C@@H](OC)C(=O)[C@H](C)C[C@H](C)/C=C/C=C/C=C/1C (stereo partly shown) [rapamycin, reference compound]",–,–,–,"IC50 [3, 7]: 0.1 to 0.3 nM; IC50 [3, 8]: 0.1 to 0.3 nM"
